The experiment has as its system inosine-5’-monophosphate dehydrogenase (IMPDH, gene: guaB). Format: binding, Bacillus anthracis. The following applies: [32P]-Ap4A, lysates of E. coli overexpressing B. anthracis ORFs.

In the case of `Nc1ncnc2c1ncn2[C@@H]1O[C@H](COP(=O)(O)OP(=O)(O)OP(=O)(O)OP(=O)(O)OC[C@H]2O[C@@H](n3cnc4c(N)ncnc43)[C@H](O)[C@@H]2O)[C@@H](O)[C@H]1O` [Ap4A, diadenosine 5’,5’’’-P1,P4-tetraphosphate], the “binding in DRaCALA screen (in words)” value is listed as “putative Ap4A-binding partner”.

Values taken from publication PMC10439310 (Nature microbiology, 2022).
